The text below walks through data of patent US12391676B2 (H. LEE MOFFITT CANCER CENTER AND RESEARCH INSTITUTE, INC., priority 2018, dated 2025).

One assay concerns MM1.S cells. Briefly: Antiproliferative activity, MM1.S cells. The assay is classed as cell-based. The note with it: Homo sapiens, Table 1 comments. As to the method:
Cellular activity of promising compounds is assessed using MM.1S and MV4-11 AML cells using c-Myc levels as biomarker (6-12 hr treatment) and antiproliferative activity (48-72 hr treatment) as described (Ciceri et al., Dual kinase-bromodomain inhibitors for rationally designed polypharmacology. Nat Chem Biol 2014).
As to `Cc1cnc(Nc2cc(F)cc(N3CCN(C)CC3)c2)nc1Nc1ccc(Cl)c(NS(=O)(=O)C(C)(C)C)c1` [drawing 10], the IC50 (usually the midpoint of a concentration-inhibition curve) was determined as 160 nM.

The same assay, now with this note: Homo sapiens, Table 2, read-out: GI50 (MM1S).
Take `CN1CCC(c2ccc(Nc3ncc([N+](=O)[O-])c(Nc4ccc(Cl)c(NS(=O)(=O)C(C)(C)C)c4)n3)cc2F)CC1` [PN1-132, N-(2-Chloro-5-((2-((3-fluoro-4-(1-methylpiperidin-4-yl)phenyl)amino)-5-nitropyrimidin-4-yl)amino)phenyl)-2-methylpropane-2-sulfonamide]: the GI50 (as a rule, the concentration at which growth is held to half of that of the control) was 360 nM.
On the same count and under the same terms, next, `Cc1cc(Nc2ncc(C)c(Nc3ccc(Cl)c(NS(=O)(=O)C(C)(C)C)c3)n2)c(F)cc1C1CCN(C)CC1` [PN1-119, N-(2-Chloro-5-((2-((2-fluoro-5-methyl-4-(1-methylpiperidin-4-yl)phenyl)amino)-5-methylpyrimidin-4-yl)amino)phenyl)-2-methylpropane-2-sulfonamide]: 390 nM; `Cc1cnc(Nc2ccc(C3=CCN(C)CC3)c(F)c2)nc1Nc1ccc(Cl)c(NS(=O)(=O)C(C)(C)C)c1` [PN1-101, N-(2-Chloro-5-((2-((3-fluoro-4-(1-methyl-1,2,3,6-tetrahydropyridin-4-yl)phenyl)amino)-5-methylpyrimidin-4-yl)amino)phenyl)-2-methylpropane-2-sulfonamide]: 100 nM.
The same measure, in the same setting: next, `Cc1cnc(Nc2ccc(C3CCN(C)CC3)c(F)n2)nc1Nc1ccc(F)c(NS(=O)(=O)C(C)(C)C)c1` [PN2-116, N-(2-Fluoro-5-((2-((6-fluoro-5-(1-methylpiperidin-4-yl)pyridin-2-yl)amino)-5-methylpyrimidin-4-yl)amino)phenyl)-2-methylpropane-2-sulfonamide]: 104 nM; `Cc1cnc(Nc2cc(F)c(C3CCN(C)CC3)c(F)c2)nc1Nc1cccc(NS(=O)(=O)C(C)(C)C)c1` [PN2-124, N-(3-((2-((3,5-Difluoro-4-(1-methylpiperidin-4-yl)phenyl)amino)-5-methylpyrimidin-4-yl)amino)phenyl)-2-methylpropane-2-sulfonamide]: 80 nM; `Cc1cnc(Nc2cc(F)c(C3CCN(C)CC3)cc2F)nc1Nc1ccc(Cl)c(NS(=O)(=O)C(C)(C)C)c1` [PN1-102, N-(2-Chloro-5-((2-((2,5-difluoro-4-(1-methylpiperidin-4-yl)phenyl)amino)-5-methylpyrimidin-4-yl)amino)phenyl)-2-methylpropane-2-sulfonamide]: 320 nM.
For `Cc1cnc(Nc2ccc(N3CCN(C)CC3)c(F)c2)cc1Nc1ccc(Cl)c(NS(=O)(=O)C(C)(C)C)c1` [MA9-036, N-(2-Chloro-5-((2-((3-fluoro-4-(4-methylpiperazin-1-yl)phenyl)amino)-5-methylpyridin-4-yl)amino)phenyl)-2-methylpropane-2-sulfonamide], the GI50 came to 3120 nM.
For the compound `Cc1cnc(Nc2cc(F)c(N3CCN(C)CC3)c(F)c2)cc1Nc1ccc(Cl)c(NS(=O)(=O)C(C)(C)C)c1` [MA9-037, N-(2-Chloro-5-((2-((3,5-difluoro-4-(4-methylpiperazin-1-yl)phenyl)amino)-5-methylpyridin-4-yl)amino)phenyl)-2-methylpropane-2-sulfonamide·bisformate], the GI50 amounted to 2830 nM.

The next assay concerns the target BRD4 (Homo sapiens (Human), UniProt O60885). Briefly: BRD4 DSF thermal shift (ΔTm). It counts as binding. The note with it: Table 1.
As for `Cc1cnc(Nc2ccc(OCCN3CCCC3)cc2)nc1Nc1ccc(Cl)c(NS(=O)(=O)C(C)(C)C)c1`, the “DSF ΔTm” value is 12.9 ± 0.1 °C.
On the same count and under the same terms, with `CN1CCC(c2ccc(Nc3ncc(C(F)(F)F)c(Nc4ccc(Cl)c(NS(=O)(=O)C(C)(C)C)c4)n3)cc2F)CC1` the figure was 10.4 ± 0.1 °C; with `Cc1cnc(Nc2cc(F)cc(N3CCN(C)CC3)c2)nc1Nc1ccc(Cl)c(NS(=O)(=O)C(C)(C)C)c1` [drawing 10], 11.1 °C.
The same measure, in the same setting: with `Cc1cnc(Nc2ccc(OCCN3CCCC3)c(F)c2)nc1Nc1cccc(NS(=O)(=O)C(C)(C)C)c1` the figure was 12.6 ± 0.1 °C; with `CN1CCN(c2ccc(Nc3ncc(F)c(Nc4ccc(Cl)c(NS(=O)(=O)C(C)(C)C)c4)n3)cc2)CC1`, 9.6 ± 0.9 °C.
Regarding `Cc1cnc(Nc2ccc(OCCN3CCCC3)c(F)c2)nc1Nc1ccc(Cl)c(NS(=O)(=O)C(C)(C)C)c1`, the “DSF ΔTm” value was found to be 15.1 ± 0.1 °C.
Regarding `Cc1cnc(Nc2ccc(C3CCN(C)CC3)c(F)c2)cc1Nc1ccc2c(c1)N(S(=O)(=O)C(C)(C)C)CC2` [drawing 16], the “DSF ΔTm” value turned out to be 8.9 ± 0.2 °C.

Staying with this assay, now noted: Table 2.
As for `CN1CCC(c2ccc(Nc3ncc([N+](=O)[O-])c(Nc4ccc(Cl)c(NS(=O)(=O)C(C)(C)C)c4)n3)cc2F)CC1` [PN1-132, N-(2-Chloro-5-((2-((3-fluoro-4-(1-methylpiperidin-4-yl)phenyl)amino)-5-nitropyrimidin-4-yl)amino)phenyl)-2-methylpropane-2-sulfonamide], the “BRD4 DSF (ΔTm)” value was 12.8 °C.
Still for that read-out and setting: with `Cc1cnc(Nc2ccc(C3=CCN(C)CC3)c(F)c2)nc1Nc1ccc(Cl)c(NS(=O)(=O)C(C)(C)C)c1` [PN1-101, N-(2-Chloro-5-((2-((3-fluoro-4-(1-methyl-1,2,3,6-tetrahydropyridin-4-yl)phenyl)amino)-5-methylpyrimidin-4-yl)amino)phenyl)-2-methylpropane-2-sulfonamide] the figure was 13.5 °C.
Still for that read-out and setting: with `Cc1cnc(Nc2ccc(OCCN3CCCC3)c(F)c2)nc1Nc1cc(NS(=O)(=O)C(C)(C)C)ncn1` [MA10-176, N-(6-((2-((3-fluoro-4-(2-(pyrrolidin-1-yl)ethoxy)phenyl)amino)-5-methylpyrimidin-4-yl)amino)pyrimidin-4-yl)-2-methylpropane-2-sulfonamide] the figure was 1.4 °C; with `Cc1cnc(Nc2ccc(C3CCN(C)CC3)c(F)n2)nc1Nc1ccc(F)c(NS(=O)(=O)C(C)(C)C)c1` [PN2-116, N-(2-Fluoro-5-((2-((6-fluoro-5-(1-methylpiperidin-4-yl)pyridin-2-yl)amino)-5-methylpyrimidin-4-yl)amino)phenyl)-2-methylpropane-2-sulfonamide], 12.1 °C; with `Cc1cnc(Nc2cc(F)c(C3CCNCC3)cn2)nc1Nc1ccc(Cl)c(NS(=O)(=O)C(C)(C)C)c1.Cl` [PN2-084, N-(2-Chloro-5-((2-((4-fluoro-5-(piperidin-4-yl)pyridin-2-yl)amino)-5-methylpyrimidin-4-yl)amino)phenyl)-2-methylpropane-2-sulfonamide hydrochloride], 14.5 °C.
`Cc1cnc(Nc2cc(F)c(C3CCN(C)CC3)c(F)c2)nc1Nc1cccc(NS(=O)(=O)C(C)(C)C)c1` [PN2-124, N-(3-((2-((3,5-Difluoro-4-(1-methylpiperidin-4-yl)phenyl)amino)-5-methylpyrimidin-4-yl)amino)phenyl)-2-methylpropane-2-sulfonamide]: the “BRD4 DSF (ΔTm)” value amounted to 13.4 °C.
The same measure, in the same setting: with `Cc1cnc(Nc2cc(F)c(C3CCN(C)CC3)cc2F)nc1Nc1ccc(Cl)c(NS(=O)(=O)C(C)(C)C)c1` [PN1-102, N-(2-Chloro-5-((2-((2,5-difluoro-4-(1-methylpiperidin-4-yl)phenyl)amino)-5-methylpyrimidin-4-yl)amino)phenyl)-2-methylpropane-2-sulfonamide] the figure was 11.4 °C.
For the compound `Cc1cnc(Nc2cc(F)c(C3CCN(C)CC3)cn2)nc1Nc1cccc(NS(=O)(=O)C(C)(C)C)c1` [PN2-103, N-(3-((2-((4-Fluoro-5-(1-methylpiperidin-4-yl)pyridin-2-yl)amino)-5-methylpyrimidin-4-yl)amino)phenyl)-2-methylpropane-2-sulfonamide], the “BRD4 DSF (ΔTm)” value turned out to be 12.4 °C.
Still for that read-out and setting: next, `Cc1cnc(Nc2cc(F)c(C3CCN(C)CC3)cn2)nc1Nc1cc(NS(=O)(=O)C(C)(C)C)ncn1` [MA10-178, N-(6-((2-((4-fluoro-5-(1-methylpiperidin-4-yl)pyridin-2-yl)amino)-5-methylpyrimidin-4-yl)amino)pyrimidin-4-yl)-2-methylpropane-2-sulfonamide]: 2.8 °C; `Cc1cnc(Nc2cc(F)ncn2)nc1Nc1ccc(Cl)c(NS(=O)(=O)C(C)(C)C)c1` [PN2-064, N-(2-Chloro-5-((2-((6-fluoropyrimidin-4-yl)amino)-5-methylpyrimidin-4-yl)amino)phenyl)-2-methylpropane-2-sulfonamide]: 1.1 °C.
On to `Cc1cnc(Nc2ccc(C3CCN(C)CC3)c(F)c2)nc1Nc1cc(NS(=O)(=O)C(C)(C)C)ncn1` [MA10-174, N-(6-((2-((3-fluoro-4-(1-methylpiperidin-4-yl)phenyl)amino)-5-methylpyrimidin-4yl)amino)pyrimidin-4-yl)-2-methylpropane-2-sulfonamide], for which the “BRD4 DSF (ΔTm)” value was 0.9 °C.
Still for that read-out and setting: next, `Cc1cnc(Nc2ccc(C3CCN(C)CC3)c(F)n2)nc1Nc1cc(NS(=O)(=O)C(C)(C)C)ncn1` [MA10-179, N-(6-((2-((6-fluoro-5-(1-methylpiperidin-4-yl)pyridin-2-yl)amino)-5-methylpyrimidin-4-yl)amino)pyrimidin-4-yl)-2-methylpropane-2-sulfonamide]: 1.4 °C.
Still for that read-out and setting: next, `Cc1cnc(Nc2cc(F)c(C3CCN(C)CC3)c(F)c2)nc1Nc1cc(NS(=O)(=O)C(C)(C)C)ncn1` [MA11-009, N-(6-((2-((3,5-difluoro-4-(1-methylpiperidin-4-yl)phenyl)amino)-5-methylpyrimidin-4-yl)amino)pyrimidin-4-yl)-2-methylpropane-2-sulfonamide]: 1.1 °C; `Cc1cnc(Nc2ccc(C3CCN(C)CC3)c(F)c2)nc1Nc1ncc2ccn(S(=O)(=O)C(C)(C)C)c2n1` [MA11-003, N4-(7-(tert-butylsulfonyl)-7H-pyrrolo[2,3-d]pyrimidin-2-yl)-N2-(3-fluoro-4-(1-methylpiperidin-4-yl)phenyl)-5-methylpyrimidine-2,4-diamine]: 8.0 °C.
On the same count and under the same terms, next, `Cc1cnc(Nc2ccc(C3CCN(C)CC3)cn2)nc1Nc1ccc(Cl)c(NS(=O)(=O)C(C)(C)C)c1` [PN2-081, N-(2-Chloro-5-((5-methyl-2-((5-(1-methylpiperidin-4-yl)pyridin-2-yl)amino)pyrimidin-4-yl)amino)phenyl)-2-methylpropane-2-sulfonamide]: 12.3 °C; `Cc1cnc(Nc2ccc(C3CCN(C)CC3)cc2)cc1Nc1cccc(NS(=O)(=O)C(C)(C)C)c1` [SY3-030, 2-Methyl-N-(3-((5-methyl-2-((4-(1-methylpiperidin-4-yl)phenyl)amino)pyridin-4-yl)amino)phenyl)propane-2-sulfonamide]: 6.3 °C.
With `Cc1cnc(Nc2ccc(N3CCN(C)CC3)cn2)nc1Nc1ccc(Cl)c(NS(=O)(=O)C(C)(C)C)c1` [PN2-091, N-(2-Chloro-5-((5-methyl-2-((5-(4-methylpiperazin-1-yl)pyridin-2-yl)amino)pyrimidin-4-yl)amino)phenyl)-2-methylpropane-2-sulfonamide], the “BRD4 DSF (ΔTm)” value is 11.5 °C.
As to `Cc1cnc(Nc2ccc(N3CCN(C)CC3)c(F)c2)cc1Nc1ccc2c(c1)N(S(=O)(=O)C(C)(C)C)CC2` [MA9-042, N^4-(1-(tert-Butylsulfonyl)indolin-6-yl)-N^2-(3-fluoro-4-(4-methylpiperazin-1-yl)phenyl)-5-methylpyridine-2,4-diamine], the “BRD4 DSF (ΔTm)” value was determined as 6.1 °C.
Turning to `Cc1cnc(Nc2ccc(OCCN3CCCC3)cc2)nc1Nc1cc(NS(=O)(=O)C(C)(C)C)ncn1`, the “BRD4 DSF (ΔTm)” value was 1.1 °C.
Same read-out and setting: next, `Cc1cnc(Nc2ccc(C3CCN(C)CC3)c(F)c2)nc1Nc1ccc2ccn(S(=O)(=O)C(C)(C)C)c2n1` [MA10-148, N4-(1-(Tert-butylsulfonyl)-1H-pyrrolo[2,3b]pyridin-6-yl)-N2-(3-fluoro-4-(1-methylpiperidin-4-yl)phenyl)-5-methylpyrimidine-2,4-diamine]: 7.6 °C.
Regarding `Cc1cnc(Nc2cc(F)c(C3CCN(C)CC3)cn2)nc1Nc1ccc2ccn(S(=O)(=O)C(C)(C)C)c2n1` [MA10-149, N4-(1-(tert-butylsulfonyl)-1H-pyrrolo[2,3-b]pyridin-6-yl)-N2-(4-fluoro-5-(1-methylpiperidin-4-yl)pyridin-2-yl)-5-methylpyrimidine-2,4-diamine], the “BRD4 DSF (ΔTm)” value was determined as 6.2 °C.
